In patent US20080114005A1, “Fibrate Compounds Having Ppar Agonist Activity” (Dr. Reddy's Laboratories Limited, priority 2004, published 2008):

What was measured:
[1] = system: hypercholesterolemic rat model; experiment: plasma triglyceride and cholesterol lowering activity in hypercholesterolemic rat model; type: in vivo, Sprague Dawley rats; conditions: hypercholesterolemic rats, 3.0 mg/kg orally for 3 days
Description: The following procedure was used to determine plasma triglyceride and cholesterol lowering activity in hypercholesterolemic rat model.
Male Sprague Dawley rats (NIN stock) were bred in DRL animal house. Animals were maintained under 12 hour light and dark cycle at 25±1° C. Rats of 180-200 gram body weight range were used for the experiment. Animals are made hypercholesterolemic by feeding 2% cholesterol and 1% sodium cholate mixed with standard laboratory chow [National Institute of Nutrition (NIN), Hyderabad, India] for 6 days. Throughout the experimental period the animals were maintained on the same diet. The test compounds were administered orally at a dose mentioned in table for 3 days. Control group was treated with vehicle alone (0.25% CMC; 10 ml/kg). The blood samples were collected in fed state 1 hour after drug administration on 0 and 3 days of compound treatment. The blood was collected from the retro-orbital sinus through heparinised capillary in EDTA containing tubes. After centrifugation, plasma sample was separated for total cholesterol, HDL and triglyceride estimations. Measurement of plasma triglyceride, total cholesterol and HDL were done using commercial kits. LDL and VLDL cholesterol can be calculated from the data obtained for total cholesterol, HDL and triglyceride.
The percent reductions in blood sugar/triglycerides/total cholesterol were calculated according to the following formula:
OC=Zero day control group value
OT=Zero day treated group value
TC=Test day control group value
T=Test day treated group value.
The levels of LDL and VLDL cholesterol were calculated according to the formula:
VLDL cholesterol in mg/dl=[Total cholesterol-HDL cholesterol-LDL cholesterol] mg/dl.

human PPARγ1 = target: T1, human PPARγ1 (Homo sapiens, UniProt P37231); experiment: in vitro PPARγ transactivation, GAL4-LBD luciferase reporter in HEK-293 cells; type: cell-based; conditions: luciferase fold activation relative to untreated cells
T1 construct: expressed in transfected cells; host or cells: HEK-293
T1 sequence (P37231 238-503 limits assumed): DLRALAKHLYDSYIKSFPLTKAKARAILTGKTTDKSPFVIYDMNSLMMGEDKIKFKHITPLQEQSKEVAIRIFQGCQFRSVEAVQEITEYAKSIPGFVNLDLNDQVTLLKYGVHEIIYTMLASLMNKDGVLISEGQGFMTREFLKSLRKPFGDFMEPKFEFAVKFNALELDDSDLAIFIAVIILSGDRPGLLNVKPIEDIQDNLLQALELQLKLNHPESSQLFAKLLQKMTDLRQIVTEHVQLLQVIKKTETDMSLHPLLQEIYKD
Description: (§1) The following procedure was used for in vitro determination of PPARα, γ and δ transactivation.
(§2) The ligand binding domain of human PPARγ1, PPARα or PPARδ was fused to the C-terminal end of DNA binding domain of yeast transcription factor GAL4 in eukaryotic expression vector. HEK-293 cells were transfected with either of these plasmids, reporter plasmid pGL2 (Gal4×5)˜SV40˜Luc and pAdVantage using superfect (Qiagen, Germany) for 3 hours. pAdVantage vector was used to enhance the luciferase expression. 48 hours after transfection, the cells were harvested and incubated overnight with or without test compounds at different concentrations. The cells were lysed and luciferase activity was measured using the LucLite kit (Packard USA). Luciferase activity was measured as fold activation relative to untreated cells.

human PPARδ = target: T2, human PPARδ (Homo sapiens, UniProt Q03181); experiment: in vitro PPARδ transactivation, GAL4-LBD luciferase reporter in HEK-293 cells; type: cell-based; conditions: luciferase fold activation relative to untreated cells
T2 construct: expressed in transfected cells; host or cells: HEK-293
T2 sequence (Q03181 211-439 limits assumed): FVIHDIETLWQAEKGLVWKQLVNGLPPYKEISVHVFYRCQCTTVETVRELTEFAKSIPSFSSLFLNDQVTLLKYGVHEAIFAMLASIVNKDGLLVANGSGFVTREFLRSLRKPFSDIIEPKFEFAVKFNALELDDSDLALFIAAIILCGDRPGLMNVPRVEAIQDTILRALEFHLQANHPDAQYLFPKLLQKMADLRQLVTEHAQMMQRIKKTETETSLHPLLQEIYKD
Description: as §1, §2

Swiss albino mice = experiment: plasma triglyceride lowering activity in Swiss albino mice; type: in vivo; conditions: 3.0 mg/kg orally for 6 days
Description: The properties of the derivatives of the invention were also evaluated in vivo. The following procedure was used to determine plasma triglyceride and total cholesterol lowering activity in Swiss albino mice.
Male Swiss albino mice (SAM) were obtained from National Institute Nutrition (NIN) and housed in Dr. Reddy's Laboratories Ltd (DRL) animal house. All these animals are maintained under 12 hour light and dark cycle at 25±1° C. Animals were given standard laboratory chow (NIN, Hyderabad, India) and water, ad libitum. SAM of 20-25 grams body weight range were used. See Oliver, P., Plancke, M. O., Marzin, D., Clavey, V., Sauzieres, J and Fruchart, J. C. Effects of fenofibrate, gemfibrozil and nicotinic acid on plasma lipoprotein levels in normal and hyperlipidemic mice, Atherosclerosis. 1988. 70: 107-114, incorporated herein by reference in its entirety. The test compounds can be administered orally to Swiss albino mice at the dose mentioned in table for 6 days. Control mice were treated with vehicle 0.25% Carboxymethylcellulose (CMC; dose 10 ml/kg). The blood samples from the retro-orbital sinus through heparinised capillary in EDTA containing tubes were collected in fed state 1 hour after drug administration on 0 and 6 days of treatment. After centrifugation plasma was separated for triglyceride measurement using commercial kits. See Wieland, O. Methods of Enzymatic analysis. Bergermeyer, H. O., Ed., 1963. 211-214; Trinder, P. Ann. Clin. Biochem. 1969. 6: 24-27, incorporated herein by reference in its entirety. Percent reduction was calculated as per the formula given in Petit, D., Bonnefis, M. T., Rey, C. and Infante, R. Effects of ciprofibrate on liver lipids and lipoprotein synthesis in normo- and hyperlipidemic rats. Atherosclerosis. 1988. 74 : 215-225.

human PPARα = target: T3, human PPARα (Homo sapiens, UniProt Q07869); experiment: in vitro PPARα transactivation, GAL4-LBD luciferase reporter in HEK-293 cells; type: cell-based; conditions: luciferase fold activation relative to untreated cells
T3 construct: expressed in transfected cells; host or cells: HEK-293
T3 sequence (Q07869 239-466 limits assumed): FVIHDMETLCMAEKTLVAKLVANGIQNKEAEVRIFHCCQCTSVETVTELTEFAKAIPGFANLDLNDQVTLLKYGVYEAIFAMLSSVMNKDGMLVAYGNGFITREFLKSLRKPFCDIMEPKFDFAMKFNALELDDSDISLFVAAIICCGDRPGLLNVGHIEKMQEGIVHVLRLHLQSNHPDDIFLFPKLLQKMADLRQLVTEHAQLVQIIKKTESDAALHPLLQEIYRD
Text: A number of derivatives of the invention have shown PPAR agonist activity. The following procedure was used for in vitro determination of PPARα, γ and δ transactivation.
as §2

PPARγ activation (human PPARγ1; test compound at 1 μM): 1.1(87.3)
PPARγ activation (human PPARγ1; test compound at 10 μM): 0.3(85.3)
PPARδ activation (human PPARδ; test compound at 1 μM): 0.6
PPARδ activation (human PPARδ; test compound at 10 μM): 3.3
PPARα activation (human PPARα; test compound at 1 μM): 5.0
PPARα activation (human PPARα; test compound at 10 μM): 5.7
melting point: 130 to 132 °C
SMILES: CCCc1nn(C)c2c(=O)n(CCOc3cccc(OC(C)(CC)C(=O)O)c3)c(C)nc12 (stereo not drawn) [Example 98, 2-{3-[2-(1,5-Dimethyl-7-oxo-3-propyl-1,7-dihydro-pyrazolo[4,3-d]pyrimidin-6-yl)-ethoxy]-phenoxy}-2-methyl-butyric acid]
Reduction (%) LDL ([1]; LDL cholesterol calculated by formula): 75%
↑HDL ([1]; increase of plasma HDL (under head Reduction (%))): 267%
Reduction (%) TC ([1]; plasma total cholesterol): 67%
Reduction (%) TG ([1]; plasma triglyceride): 81%
% reduction in TG (Swiss albino mice): 65%
